# According to patent EP4729522A1, “CRYSTAL FORMS OF SODIUM SALT OF POLYCYCLIC CARBAMOYLPYRIDONE DERIVATIVE, AND PREPARATION METHOD THEREFOR AND USE THEREOF” (Jiangsu Aidea Pharmaceutical Group Co., Ltd., priority 2023, dated 2024):
# “Also recorded” adds a separate entry of the source. Where a name gives a salt, the structure may show the parent alone.
# Tests used:
# Format in all cases: physicochemical
# [1] = High pressure property test (XRPD after pressing); conditions: pressed at 10 MPa for 5 minutes, 13 mm die
# [2] = Hygroscopicity by Dynamic Vapor Sorption (DVS)
# Description: [table] […] The sample, after DVS testing, was then analyzed by XRPD. Table 8 DVS test results of sodium salts
# [3] = Simulated granulation test (ethanol wetting and grinding, XRPD); conditions: wetted with ethanol, then ground
# Description: The resulting solid and the sample without the addition of wetting ethanol were analyzed by XRPD, respectively.
# [4] = Influencing factors stability test (high temperature, high humidity, lighting; XRPD, HPLC, appearance); conditions: for Purity: HPLC
# Description: The petri dishes were then transferred into constant temperature and humidity chambers under three different conditions: high temperature (60 °C, sealed), high relative humidity (RH: 90 ± 5%, 25 °C, open), and lighting (5000 ± 500 Lux, open). The samples were tested on Day 5 and Day 10.
# [5] = Day 5, High humidity (RH 90 ± 5%, 25 °C, open)
# [6] = Day 5, High temperature (60 °C, sealed)
# [7] = Day 5, Lighting (5000 ± 500 Lux, open)
# [8] = Day 10, High humidity (RH 90 ± 5%, 25 °C, open)
# [9] = Day 10, High temperature (60 °C, sealed)
# [10] = Day 10, Lighting (5000 ± 500 Lux, open)
structure (smiles),measurement,setting,value
C[C@H]1N2C(=O)c3c(O)c(=O)c(C(=O)NCc4ccc(F)cc4F)cn3C[C@@H]2OCC12CC2 [Sodium salt crystal form A],crystal form after the high-pressure test (XRPD),[1],did not change
same,weight gain at 80% relative humidity (RH),"[2]; DVS, 80% RH, 25°C",0.69%
same,Adsorption,"[2]; Relative humidity 0%, adsorption (cycle 1 of 2), 25°C",0.0000%
same,Adsorption,"[2]; Relative humidity 0%, adsorption (cycle 2 of 2), 25°C",-0.0471%
same,Desorption,"[2]; Relative humidity 0%, desorption (cycle 2 of 2), 25°C",-0.0614%
same,Desorption,"[2]; Relative humidity 0%, first desorption (cycle 1 of 2), 25°C",-0.0471%
same,Adsorption,"[2]; Relative humidity 10%, adsorption (cycle 1 of 2), 25°C",0.0668%
same,Adsorption,"[2]; Relative humidity 10%, adsorption (cycle 2 of 2), 25°C",0.0230%
same,Desorption,"[2]; Relative humidity 10%, desorption (cycle 2 of 2), 25°C",0.0147%
same,Desorption,"[2]; Relative humidity 10%, first desorption (cycle 1 of 2), 25°C",0.0285%
same,Adsorption,"[2]; Relative humidity 20%, adsorption (cycle 1 of 2), 25°C",0.1197%
same,Adsorption,"[2]; Relative humidity 20%, adsorption (cycle 2 of 2), 25°C",0.0818%
same,Desorption,"[2]; Relative humidity 20%, desorption (cycle 2 of 2), 25°C",0.0758%
same,Desorption,"[2]; Relative humidity 20%, first desorption (cycle 1 of 2), 25°C",0.0891%
same,Adsorption,"[2]; Relative humidity 30%, adsorption (cycle 1 of 2), 25°C",0.1725%
same,Adsorption,"[2]; Relative humidity 30%, adsorption (cycle 2 of 2), 25°C",0.1394%
same,Desorption,"[2]; Relative humidity 30%, desorption (cycle 2 of 2), 25°C",0.1373%
same,Desorption,"[2]; Relative humidity 30%, first desorption (cycle 1 of 2), 25°C",0.1498%
same,Adsorption,"[2]; Relative humidity 40%, adsorption (cycle 1 of 2), 25°C",0.2282%
same,Adsorption,"[2]; Relative humidity 40%, adsorption (cycle 2 of 2), 25°C",0.2001%
same,Desorption,"[2]; Relative humidity 40%, desorption (cycle 2 of 2), 25°C",0.2149%
same,Desorption,"[2]; Relative humidity 40%, first desorption (cycle 1 of 2), 25°C",0.2239%
same,Adsorption,"[2]; Relative humidity 50%, adsorption (cycle 1 of 2), 25°C",0.2857%
same,Adsorption,"[2]; Relative humidity 50%, adsorption (cycle 2 of 2), 25°C",0.2641%
same,Desorption,"[2]; Relative humidity 50%, desorption (cycle 2 of 2), 25°C",0.3200%
same,Desorption,"[2]; Relative humidity 50%, first desorption (cycle 1 of 2), 25°C",0.3320%
same,Adsorption,"[2]; Relative humidity 60%, adsorption (cycle 1 of 2), 25°C",0.3539%
same,Adsorption,"[2]; Relative humidity 60%, adsorption (cycle 2 of 2), 25°C",0.3365%
same,Desorption,"[2]; Relative humidity 60%, desorption (cycle 2 of 2), 25°C",0.5185%
same,Desorption,"[2]; Relative humidity 60%, first desorption (cycle 1 of 2), 25°C",0.5250%
same,Adsorption,"[2]; Relative humidity 70%, adsorption (cycle 1 of 2), 25°C",0.5505%
same,Adsorption,"[2]; Relative humidity 70%, adsorption (cycle 2 of 2), 25°C",0.5627%
same,Desorption,"[2]; Relative humidity 70%, desorption (cycle 2 of 2), 25°C",0.6037%
same,Desorption,"[2]; Relative humidity 70%, first desorption (cycle 1 of 2), 25°C",0.6126%
same,Adsorption,"[2]; Relative humidity 80%, adsorption (cycle 1 of 2), 25°C",0.6895%
same,Adsorption,"[2]; Relative humidity 80%, adsorption (cycle 2 of 2), 25°C",0.6928%
same,Desorption,"[2]; Relative humidity 80%, desorption (cycle 2 of 2), 25°C",0.7082%
same,Desorption,"[2]; Relative humidity 80%, first desorption (cycle 1 of 2), 25°C",0.7176%
same,Adsorption,"[2]; Relative humidity 90%, adsorption (cycle 1 of 2), 25°C",0.9012%
same,Adsorption,"[2]; Relative humidity 90%, adsorption (cycle 2 of 2), 25°C",0.8889%
same,Desorption,"[2]; Relative humidity 90%, desorption (cycle 2 of 2), 25°C",0.8889%
same,Desorption,"[2]; Relative humidity 90%, first desorption (cycle 1 of 2), 25°C",0.9012%
same,After DVS testing Crystal form change,[2]; XRPD after DVS testing,"did not change; also recorded: Crystal form A, unchanged"
same,change in crystal form after ethanol wetting and grinding (XRPD),[3],did not exhibit a change in crystal form
same,Property,[4]; Day 0,off-white solid
same,XRPD,[4]; Day 0,Crystal Form A
same,Purity,[4]; Day 0,99.57%
same,Property,[4]; [5],off-white solid
same,XRPD,[4]; [5],Crystal Form A
same,Purity,[4]; [5],99.64%
same,Property,[4]; [6],off-white solid
same,XRPD,[4]; [6],Crystal Form A
same,Purity,[4]; [6],99.69%
same,Property,[4]; [7],off-white solid
same,XRPD,[4]; [7],Crystal Form A
same,Purity,[4]; [7],99.68%
same,Property,[4]; [8],off-white solid
same,XRPD,[4]; [8],Crystal Form A
same,Purity,[4]; [8],99.72%
same,Property,[4]; [9],off-white solid
same,XRPD,[4]; [9],Crystal Form A
same,Purity,[4]; [9],99.72%
same,Property,[4]; [10],off-white solid
same,XRPD,[4]; [10],Crystal Form A
same,Purity,[4]; [10],99.72%
